From DBAASP
Values after ≈ are worked out from the molar mass of the structure shown.

How the values were obtained:
Assay in all cases: ≥ marks a high value that may be exact or a test limit, other limits are often not marked, values filed in µg/mL are converted to µM
[1] = test system: Staphylococcus aureus DBFIQ S21
[2] = test system: Listeria monocytogenes DBFIQ LM3
[3] = test system: Klebsiella pneumoniae ATCC 10031
[4] = test system: Salmonella enterica subsp. enterica serovar Typhimurium ATCC 14028
[5] = test system: Escherichia coli ATCC 11219
[6] = test system: Pseudomonas aeruginosa ATCC 13388
[7] = test system: Staphylococcus aureus ATCC 6538
[8] = test system: Staphylococcus epidermidis M2921
[9] = test system: Staphylococcus aureus M6784
[10] = test system: Klebsiella pneumoniae M5825
[11] = test system: Pseudomonas aeruginosa PACO12
Acinetobacter sp. M9665 = test system: Acinetobacter sp. M9665
Staphylococcus warneri = test system: Staphylococcus warneri
[12] = test system: Escherichia coli ATCC 25922
[13] = test system: Enterococcus faecalis ATCC 51299
Escherichia coli M5306 = test system: Escherichia coli M5306
Escherichia coli M9884 = test system: Escherichia coli M9884
Escherichia coli M9209 = test system: Escherichia coli M9209
Acinetobacter sp. M5949 = test system: Acinetobacter sp. M5949
[14] = test system: Enterococcus faecalis M4899
[15] = test system: Enterococcus gallinarum M2723
[16] = test system: Enterococcus faecium M2304
[17] = test system: Klebsiella pneumoniae M9491
[18] = test system: Pseudomonas aeruginosa ATCC 27853
[19] = test system: Klebsiella pneumoniae PFAV 3
[20] = test system: Pseudomonas aeruginosa M11005
Acinetobacter sp. M13523 = test system: Acinetobacter sp. M13523
Staphylococcus cohnii = test system: Staphylococcus cohnii
[21] = test system: Staphylococcus aureus P33
[22] = test system: Staphylococcus aureus ATCC 25923
[23] = test system: Enterococcus faecalis ATCC 29212
[24] = test system: Staphylococcus haemolyticus M2976
[25] = test system: Staphylococcus hominis M2973
Escherichia coli M7859 = test system: Escherichia coli M7859
[26] = test system: Staphylococcus epidermidis M2923
[27] = test system: Klebsiella pneumoniae M11245
[28] = test system: Klebsiella pneumoniae M9375
[29] = test system: Enterococcus faecium PZAP 95
[30] = test system: Enterococcus faecalis M6983
Acinetobacter sp. M9013 = test system: Acinetobacter sp. M9013
[31] = test system: Staphylococcus saprophyticus M4070
[32] = test system: Staphylococcus hominis M2967
[33] = test system: Staphylococcus aureus ATCC 502A
Escherichia coli BL2 = test system: Escherichia coli BL2
[34] = test system: Acinetobacter baumannii ATCC 15308
[35] = test system: Micrococcus luteus ATCC 7468
[36] = test system: Enterococcus faecium ATCC 19434
[37] = test system: Pseudomonas sp. ATCC 15915
[38] = test system: Staphylococcus aureus CGMCC 1.0363
[39] = test system: Vibrio alginolyticus CGMCC 1.1833
[40] = test system: Aeromonas hydrophila CGMCC 1.0927
[41] = test system: Corynebacterium glutamicum CGMCC 1.1886
[42] = test system: Vibrio parahaemolyticus CGMCC 1.1615

CC[C@H](C)[C@H](NC(=O)[C@H](C)NC(=O)[C@@H](NC(=O)[C@H](C)NC(=O)CNC(=O)[C@H](CCSC)NC(=O)[C@H](CCC(N)=O)NC(=O)[C@H](CC(C)C)NC(=O)[C@H](CO)NC(=O)[C@@H](N)Cc1ccc(O)cc1)[C@@H](C)O)C(=O)N[C@@H](CCCCN)C(=O)N[C@@H](CCC(N)=O)C(=O)N[C@H](C(=O)N[C@@H](CCCCN)C(=O)N[C@@H](CCCCN)C(=O)N[C@@H](CC(C)C)C(=O)N[C@@H](Cc1ccccc1)C(=O)N[C@@H](CCCCN)C(=O)N[C@@H](CCCCN)C(=O)N[C@@H](CCCCN)C(=O)NCC(=O)NCC(N)=O)C(C)C [YSLQMGATAIKQVKKLFKKKGG]
MIC [1]: 6.6 µM (≈ 16 µg/mL)
MIC [2]: 1.7 µM (≈ 4.12 µg/mL)

CC[C@H](C)[C@H](NC(=O)CN)C(=O)N[C@@H](CCCN=C(N)N)C(=O)N[C@@H](CCCN=C(N)N)C(=O)N[C@H](C(=O)N[C@@H](CC(C)C)C(=O)N[C@@H](CCCN=C(N)N)C(=O)N[C@@H](Cc1ccc(O)cc1)C(=O)NCC(=O)N[C@@H](CCCN=C(N)N)C(=O)N[C@@H](CCCN=C(N)N)C(=O)N[C@@H](CO)C(N)=O)[C@@H](C)CC [GIRRILRYGRRS]
MIC [3]: 5 µM (≈ 7.51 µg/mL)
MIC [4]: 10 µM (≈ 15 µg/mL)
MIC [5]: 3 µM (≈ 4.51 µg/mL)
MIC [6]: 20 µM (≈ 30 µg/mL)
MIC [7]: 10 µM (≈ 15 µg/mL)

CC[C@H](C)[C@H](NC(=O)[C@H](CCCN=C(N)N)NC(=O)[C@H](CCC(N)=O)NC(=O)[C@@H](NC(=O)[C@@H](NC(=O)[C@@H](N)CCCN=C(N)N)[C@@H](C)CC)C(C)C)C(=O)N[C@@H](CCCCN)C(=O)N[C@@H](CCCCN)C(=O)N[C@@H](Cc1c[nH]c2ccccc12)C(=O)N[C@@H](CC(C)C)C(=O)N[C@@H](CC(C)C)C(=O)N[C@@H](CCCCN)C(=O)N[C@@H](Cc1c[nH]c2ccccc12)C(=O)N[C@@H](CCCCN)C(=O)N[C@@H](CCCCN)C(=O)N[C@@H](CC(C)C)C(=O)NCC(=O)N[C@@H](Cc1ccc(O)cc1)C(N)=O [RIVQRIKKWLLKWKKLGY]
MIC [8]: 3.39 µM (≈ 8 µg/mL)
MIC [9]: 13.6 µM (≈ 32 µg/mL)
MIC [10]: 13.6 µM (≈ 32 µg/mL)
MIC [11]: 27.2 µM (≈ 64 µg/mL)
MIC (Acinetobacter sp. M9665): ≥ 54.3 µM
MIC (Staphylococcus warneri): 3.39 µM (≈ 8 µg/mL)
MIC [12]: 13.6 µM (≈ 32 µg/mL)
MIC [13]: ≥ 109 µM
MIC (Escherichia coli M5306): 27.2 µM (≈ 64 µg/mL)
MIC (Escherichia coli M9884): 13.6 µM (≈ 32 µg/mL)
MIC (Escherichia coli M9209): ≥ 54.3 µM
MIC (Acinetobacter sp. M5949): ≥ 109 µM
MIC [14]: ≥ 109 µM
MIC [15]: 6.79 µM (≈ 16 µg/mL)
MIC [16]: 3.39 µM (≈ 8 µg/mL)
MIC [17]: 27.2 µM (≈ 64 µg/mL)
MIC [18]: 27.2 µM (≈ 64 µg/mL)
MIC [19]: ≥ 54.3 µM
MIC [20]: ≥ 54.3 µM
MIC (Acinetobacter sp. M13523): 27.2 µM (≈ 64 µg/mL)
MIC (Staphylococcus cohnii): 3.39 µM (≈ 8 µg/mL)
MIC [21]: 27.2 µM (≈ 64 µg/mL)
MIC [22]: 13.6 µM (≈ 32 µg/mL)
MIC [23]: 54.3 µM (≈ 128 µg/mL)
MIC [24]: 3.39 µM (≈ 8 µg/mL)
MIC [25]: 1.7 µM (≈ 4 µg/mL)
MIC (Escherichia coli M7859): 6.79 µM (≈ 16 µg/mL)
MIC [26]: 6.79 µM (≈ 16 µg/mL)
MIC [27]: 3.39 µM (≈ 8 µg/mL)
MIC [28]: 6.79 µM (≈ 16 µg/mL)
MIC [29]: 6.79 µM (≈ 16 µg/mL)
MIC [30]: ≥ 54.3 µM
MIC (Acinetobacter sp. M9013): 13.6 µM (≈ 32 µg/mL)
MIC [31]: 3.39 µM (≈ 8 µg/mL)
MIC [32]: 3.39 µM (≈ 8 µg/mL)

CC[C@H](C)[C@H](NC(=O)[C@H](C)NC(=O)[C@H](CCCN=C(N)N)NC(=O)[C@H](CCSC)NC(=O)[C@H](C)NC(=O)[C@@H](NC(=O)[C@@H](N)[C@@H](C)O)[C@@H](C)CC)C(=O)N[C@@H](CC(N)=O)C(=O)N[C@@H](CC(N)=O)C(=O)N[C@@H](Cc1ccc(O)cc1)C(=O)N[C@@H](CCCN=C(N)N)C(=O)N[C@@H](Cc1c[nH]c2ccccc12)C(=O)N[C@@H](CCCN=C(N)N)C(=O)N[C@@H](CO)C(=O)N[C@@H](CCCCN)C(=O)N[C@@H](CC(N)=O)C(=O)N[C@@H](CCC(N)=O)C(=O)N[C@@H](CC(N)=O)C(=O)N[C@H](C(=O)N[C@@H](Cc1ccccc1)C(=O)N[C@@H](CC(C)C)C(=O)N[C@@H](CCCN=C(N)N)C(=O)O)[C@@H](C)O [TIAMRAINNYRWRSKNQNTFLR]
MIC [33]: 1.5 µM (≈ 4.13 µg/mL)
MIC (Escherichia coli BL2): 7 µM (≈ 19.3 µg/mL)
MIC [34]: 1.1 µM (≈ 3.03 µg/mL)
MIC [35]: 7 µM (≈ 19.3 µg/mL)
MIC [36]: 7 µM (≈ 19.3 µg/mL)
MIC [37]: 7 µM (≈ 19.3 µg/mL)

CSCC[C@H](NC(=O)[C@H](CO)NC(=O)[C@H](CC(C)C)NC(=O)[C@H](Cc1cnc[nH]1)NC(=O)[C@H](CO)NC(=O)[C@@H](N)CCC(N)=O)C(=O)N[C@H]1CSSC[C@@H](C(=O)N[C@@H](CCCN=C(N)N)C(=O)N[C@@H](Cc2ccccc2)C(=O)O)NC(=O)[C@@H]2CSSC[C@@H]3NC(=O)[C@@H]4CSSC[C@H](NC(=O)[C@H](C(C)C)NC(=O)[C@H](CO)NC1=O)C(=O)N[C@@H](CSSC[C@H](NC(=O)CNC(=O)[C@H](CCCCN)NC(=O)[C@H](Cc1ccc(O)cc1)NC(=O)[C@H](CC(N)=O)NC(=O)[C@H](CCCCN)NC3=O)C(=O)NCC(=O)N[C@@H](Cc1ccccc1)C(=O)N2)C(=O)N[C@@H](CC(N)=O)C(=O)N4 [QSHLSMCSVCCNCCKNYKGCGFCCRF]
MIC [38]: 12 µM (≈ 35 µg/mL)
MIC [39]: ≥ 48 µM
MIC [40]: 12 µM (≈ 35 µg/mL)
MIC [12]: 24 µM (≈ 70 µg/mL)
MIC [41]: 12 µM (≈ 35 µg/mL)
MIC [42]: ≥ 48 µM
